# Measured values: the Kinase Knowledgebase extract (Sharma et al. 2016)
# How the values were obtained:
# [1] = target: PIK3CA (human) (UniProt P42336); assay: Inhibition of PIK3CA Kinase Activity
# [2] = target: PIK3CD (Human) (UniProt O00329); assay: Inhibition of PIK3CD Kinase Activity
# [3] = target: PIK3CB (Human) (UniProt P42338); assay: Inhibition of PIK3CB Kinase Activity
# [4] = target: PIK3CG (human) (UniProt P48736); assay: Inhibition of PIK3CG Kinase Activity
# Sequence of PIK3CG (human) (P48736 whole entry, looked up): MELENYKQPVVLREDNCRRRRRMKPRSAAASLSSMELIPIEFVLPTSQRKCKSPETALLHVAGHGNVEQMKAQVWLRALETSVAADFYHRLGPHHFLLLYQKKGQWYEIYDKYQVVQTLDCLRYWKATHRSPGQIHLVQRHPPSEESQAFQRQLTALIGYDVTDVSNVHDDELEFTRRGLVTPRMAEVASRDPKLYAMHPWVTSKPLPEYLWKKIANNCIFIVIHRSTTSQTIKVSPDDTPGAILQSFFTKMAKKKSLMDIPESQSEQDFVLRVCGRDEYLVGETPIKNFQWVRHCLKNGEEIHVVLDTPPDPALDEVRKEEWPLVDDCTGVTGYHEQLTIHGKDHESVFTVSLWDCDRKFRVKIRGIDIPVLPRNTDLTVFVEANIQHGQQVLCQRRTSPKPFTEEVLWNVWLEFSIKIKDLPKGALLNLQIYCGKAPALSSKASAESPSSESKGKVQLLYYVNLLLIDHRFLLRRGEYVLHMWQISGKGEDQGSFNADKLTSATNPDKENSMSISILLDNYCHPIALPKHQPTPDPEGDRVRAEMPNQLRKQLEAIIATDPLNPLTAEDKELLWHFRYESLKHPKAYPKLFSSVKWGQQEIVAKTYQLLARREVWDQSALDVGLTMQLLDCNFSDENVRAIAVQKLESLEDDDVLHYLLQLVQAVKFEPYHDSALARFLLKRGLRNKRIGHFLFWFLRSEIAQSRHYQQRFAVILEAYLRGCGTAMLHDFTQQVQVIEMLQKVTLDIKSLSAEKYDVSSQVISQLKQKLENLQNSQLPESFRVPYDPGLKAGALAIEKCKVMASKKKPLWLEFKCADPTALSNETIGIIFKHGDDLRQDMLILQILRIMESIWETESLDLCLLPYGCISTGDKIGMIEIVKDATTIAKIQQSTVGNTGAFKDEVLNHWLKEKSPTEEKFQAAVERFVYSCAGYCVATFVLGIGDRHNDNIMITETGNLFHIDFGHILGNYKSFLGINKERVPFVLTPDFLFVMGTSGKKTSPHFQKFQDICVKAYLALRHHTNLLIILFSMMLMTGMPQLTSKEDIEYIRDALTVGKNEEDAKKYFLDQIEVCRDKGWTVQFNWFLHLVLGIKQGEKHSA
# Sequence of PIK3CA (human) (P42336 whole entry, looked up): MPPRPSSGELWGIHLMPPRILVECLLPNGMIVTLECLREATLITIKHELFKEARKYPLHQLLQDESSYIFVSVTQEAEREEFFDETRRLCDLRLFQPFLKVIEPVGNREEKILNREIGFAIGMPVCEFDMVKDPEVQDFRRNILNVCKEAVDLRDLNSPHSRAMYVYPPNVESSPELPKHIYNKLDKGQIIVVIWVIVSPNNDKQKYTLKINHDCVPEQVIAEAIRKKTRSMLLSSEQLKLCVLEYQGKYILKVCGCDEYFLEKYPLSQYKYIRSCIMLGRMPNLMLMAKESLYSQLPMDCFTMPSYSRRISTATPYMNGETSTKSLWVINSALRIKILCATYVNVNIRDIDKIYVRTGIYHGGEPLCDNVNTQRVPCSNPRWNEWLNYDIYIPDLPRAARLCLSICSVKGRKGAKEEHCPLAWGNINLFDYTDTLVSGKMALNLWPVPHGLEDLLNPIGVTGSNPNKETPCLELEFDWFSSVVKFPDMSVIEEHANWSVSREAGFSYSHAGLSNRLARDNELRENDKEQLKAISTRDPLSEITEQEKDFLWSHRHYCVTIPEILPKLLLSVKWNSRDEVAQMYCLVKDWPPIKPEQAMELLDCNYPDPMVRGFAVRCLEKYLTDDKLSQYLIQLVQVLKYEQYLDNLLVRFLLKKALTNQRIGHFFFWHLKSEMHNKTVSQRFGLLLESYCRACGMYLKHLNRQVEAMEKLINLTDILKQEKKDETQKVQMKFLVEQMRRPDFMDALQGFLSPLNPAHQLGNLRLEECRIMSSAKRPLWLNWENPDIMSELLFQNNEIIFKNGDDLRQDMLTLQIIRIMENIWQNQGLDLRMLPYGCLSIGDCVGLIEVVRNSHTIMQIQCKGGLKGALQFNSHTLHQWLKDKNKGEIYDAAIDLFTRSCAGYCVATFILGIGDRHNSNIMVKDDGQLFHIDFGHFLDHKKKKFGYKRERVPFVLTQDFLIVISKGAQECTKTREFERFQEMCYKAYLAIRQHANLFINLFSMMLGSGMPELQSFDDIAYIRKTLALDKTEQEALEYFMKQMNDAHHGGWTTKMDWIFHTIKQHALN
# Sequence of PIK3CB (Human) (P42338 whole entry, looked up): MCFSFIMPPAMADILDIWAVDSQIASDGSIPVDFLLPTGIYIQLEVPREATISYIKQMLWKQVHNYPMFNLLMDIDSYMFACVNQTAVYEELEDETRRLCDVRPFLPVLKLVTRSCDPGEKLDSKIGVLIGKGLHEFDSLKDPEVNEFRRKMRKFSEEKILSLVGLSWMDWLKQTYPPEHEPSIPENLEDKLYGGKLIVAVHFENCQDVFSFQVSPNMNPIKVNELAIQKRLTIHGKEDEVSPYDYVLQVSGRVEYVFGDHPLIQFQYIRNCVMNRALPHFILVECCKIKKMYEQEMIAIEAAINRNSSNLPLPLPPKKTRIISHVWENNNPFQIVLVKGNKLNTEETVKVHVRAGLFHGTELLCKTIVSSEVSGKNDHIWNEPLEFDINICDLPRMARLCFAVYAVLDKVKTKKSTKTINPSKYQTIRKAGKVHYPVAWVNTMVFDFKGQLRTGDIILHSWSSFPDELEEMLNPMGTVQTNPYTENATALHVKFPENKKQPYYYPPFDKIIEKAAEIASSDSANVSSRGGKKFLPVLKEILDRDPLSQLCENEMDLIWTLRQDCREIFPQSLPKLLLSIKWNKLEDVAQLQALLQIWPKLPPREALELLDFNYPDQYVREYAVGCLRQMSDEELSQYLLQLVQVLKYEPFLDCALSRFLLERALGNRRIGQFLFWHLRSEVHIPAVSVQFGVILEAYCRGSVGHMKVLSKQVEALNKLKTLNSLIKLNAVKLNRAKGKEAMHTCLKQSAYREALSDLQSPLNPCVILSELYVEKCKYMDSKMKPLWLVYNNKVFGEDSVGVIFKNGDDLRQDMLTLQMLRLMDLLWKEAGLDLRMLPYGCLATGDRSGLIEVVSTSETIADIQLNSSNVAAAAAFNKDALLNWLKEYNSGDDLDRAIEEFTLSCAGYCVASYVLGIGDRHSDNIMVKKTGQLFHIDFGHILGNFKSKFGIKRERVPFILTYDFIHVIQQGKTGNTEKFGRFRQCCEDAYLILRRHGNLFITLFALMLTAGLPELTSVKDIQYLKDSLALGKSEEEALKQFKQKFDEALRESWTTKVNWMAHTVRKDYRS
# Sequence of PIK3CD (Human) (O00329 whole entry, looked up): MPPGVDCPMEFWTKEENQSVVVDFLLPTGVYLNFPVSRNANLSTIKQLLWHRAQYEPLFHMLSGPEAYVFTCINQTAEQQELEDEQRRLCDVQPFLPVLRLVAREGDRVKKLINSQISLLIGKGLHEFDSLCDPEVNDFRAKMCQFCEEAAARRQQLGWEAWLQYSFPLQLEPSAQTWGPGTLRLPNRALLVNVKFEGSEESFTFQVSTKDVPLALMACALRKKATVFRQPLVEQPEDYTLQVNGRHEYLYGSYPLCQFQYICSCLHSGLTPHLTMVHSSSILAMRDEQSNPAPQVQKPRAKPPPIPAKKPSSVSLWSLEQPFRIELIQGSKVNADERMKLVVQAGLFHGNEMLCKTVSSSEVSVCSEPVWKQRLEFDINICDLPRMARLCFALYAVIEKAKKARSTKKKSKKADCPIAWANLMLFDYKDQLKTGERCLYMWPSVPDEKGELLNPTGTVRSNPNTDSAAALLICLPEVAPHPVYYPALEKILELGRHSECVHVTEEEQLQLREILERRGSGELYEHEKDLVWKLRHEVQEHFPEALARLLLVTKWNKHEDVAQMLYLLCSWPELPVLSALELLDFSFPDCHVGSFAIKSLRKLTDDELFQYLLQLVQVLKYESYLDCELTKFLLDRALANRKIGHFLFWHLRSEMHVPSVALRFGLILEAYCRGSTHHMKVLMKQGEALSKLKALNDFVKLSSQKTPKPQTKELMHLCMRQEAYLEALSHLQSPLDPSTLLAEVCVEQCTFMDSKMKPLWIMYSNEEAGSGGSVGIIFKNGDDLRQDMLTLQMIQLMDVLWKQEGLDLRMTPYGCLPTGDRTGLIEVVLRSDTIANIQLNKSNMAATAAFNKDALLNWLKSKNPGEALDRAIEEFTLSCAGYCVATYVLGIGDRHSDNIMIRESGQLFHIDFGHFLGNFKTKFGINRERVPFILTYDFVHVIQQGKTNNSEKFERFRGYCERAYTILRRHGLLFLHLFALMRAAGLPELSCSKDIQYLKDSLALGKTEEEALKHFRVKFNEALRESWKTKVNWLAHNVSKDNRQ
SMILES,IC50 [1],IC50 [2],IC50 [3],IC50 [4]
COc1cc(-c2ccc3nc(C)c(-c4cnc(N)c(C(F)(F)F)c4)n3n2)ccc1OCCCNC(=O)c1ccc(F)c(F)c1,3560 nM,,,
COc1ccc(-c2ccc3nc(C)c(-c4cccnc4)n3n2)cc1OC,59 nM,309 nM,1370 nM,
COc1cccc(NC(=O)NCCCOc2ccc(-c3ccc4nc(C)c(-c5cnc(N)c(C(F)(F)F)c5)n4n3)cc2OC)c1,925 nM,,,
COc1cc(-c2ccc3nc(C)c(-c4cnc(N)c(C(F)(F)F)c4)n3n2)ccc1OCCNC(=O)Nc1cccc(C(F)(F)F)c1,3690 nM,,,
COc1cc(-c2ccc3nc(C)c(-c4cnc(N)c(C(F)(F)F)c4)n3n2)ccc1OC1CCNCC1,63 nM,153 nM,1040 nM,1180 nM
